Patent publication US8722887B2, “Sulfonylpyrazole and sulfonylpyrazoline carboxamidine derivatives as 5-HT6 antagonists” (Abbvie Bahamas, Ltd., priority 2006, dated 2014)
Read-outs that look alike come from different tables or passages of the source.

Experiments:
5-HT6 receptor [1] = biological target: T1, 5-HT6 receptor (Homo sapiens, UniProt P50406); experiment: In vitro affinity for human 5-HT6 receptors, [3H]-LSD binding in CHO cell membranes; parameters: host or cells: CHO/Gα16/mtAEQ/h5HT6-A1 (CHO AequoScreen recombinant cell line); settings: [3H]-LSD 5.0 nM, membranes of CHO cells transfected with human 5-HT6; read-out: 5-HT6 pKi (converted)
T1 sequence (P50406 whole entry): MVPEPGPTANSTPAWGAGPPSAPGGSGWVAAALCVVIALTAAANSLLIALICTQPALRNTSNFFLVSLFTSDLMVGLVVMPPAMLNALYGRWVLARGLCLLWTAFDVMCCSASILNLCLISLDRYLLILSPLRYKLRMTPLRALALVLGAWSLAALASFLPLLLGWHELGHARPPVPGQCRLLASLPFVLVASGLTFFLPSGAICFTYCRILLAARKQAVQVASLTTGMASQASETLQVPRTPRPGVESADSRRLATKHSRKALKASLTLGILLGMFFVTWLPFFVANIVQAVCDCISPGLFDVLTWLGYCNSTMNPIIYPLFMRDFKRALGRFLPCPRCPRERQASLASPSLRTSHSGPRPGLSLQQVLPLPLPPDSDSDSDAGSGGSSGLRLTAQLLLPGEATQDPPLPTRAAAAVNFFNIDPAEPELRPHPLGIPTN
Experimental: Affinity for human 5-HT6 receptors was measured in a membrane preparation of CHO-cells transfected with human 5-HT6 receptors by binding studies using [^3H]-N-Methyl-Lysergic acid diethylamide ([^3H]-LSD) as ligand. […] CHO/Gα16/mtAEQ/h5HT6-A1 cells were grown in T-flasks in CHO-S-SFM II medium (Gibco BRL), supplemented with 1% dialysed FCS, 2 mM L-glutamine, Geneticin 500 μg/ml and Zeocin 200 μg/ml. […] After thawing cells were centrifuged during 3 minutes at 1500 g at 4° C. […] The assay was established so as to achieve steady state conditions and to optimize specific binding. For the 5-HT6 receptor, membranes from 5.10^5 cells were incubated with 5.0 nM [^3H]-LSD at 37° C. for 30 minutes. Nonspecific binding was determined using 10^−5 M serotonin. Assays were terminated by vacuum filtration through glass fiber filters (GF/B) which had been pretreated with 0.5% polyethyleneimine. Total and bound radioactivity was determined by liquid scintillation counting. […] Compounds were tested at a 4 log concentration range; all determinations were performed as triplicates. IC50 values were determined by non-linear regression analysis using Hill equation curve fitting. The inhibition constants (Ki-values) were calculated from the Cheng-Preushoff equation: Ki=IC50:(1+L/Kd) wherein L represents the concentration radioligand ([^3H]-LSD) in the assay, and Kd the affinity of the radioligand for the receptor. Results are expressed as pKi-values, means±SD of at least three separate experiments.

5-HT6 receptor [2] = biological target: T1, 5-HT6 receptor; experiment: In vitro functional activity (antagonism) on human 5-HT6 receptors, CHO-human-5HT6-Aequorin assay; assay type: cell-based; parameters: host or cells: CHO/Gα16/mtAEQ/h5HT6-A1 (CHO AequoScreen recombinant cell line)
Experimental: Human-5-HT6-Aequorin cells express mitochondrial targeted apo-Aequorin. Cells have to be loaded with coelanterazine, in order to reconstitute active Aequorin. […] This luminescent response is dependent on the agonist concentration. Luminescence is measured using the MicroBeta Jet (Perkin Elmer). Agonistic effects of compounds are expressed as pEC50. […] Compounds were tested at a 5 log concentration range, and 3 independent experiments were performed in duplicate.

[3] = antagonism of 10^-8 M α-methylserotonin induced luminescence, CHO-human-5HT6-Aequorin cells, read-out: 5-HT6 pA2 (converted)
[4] = antagonism of 10^-8 M α-methylserotonin induced luminescence, CHO-human-5HT6-Aequorin cells

| Compound | Ki (5-HT6 receptor [1]) | Kb (5-HT6 receptor [2]; [3]) | other results |
| --- | --- | --- | --- |
| CCN/C(=N\S(=O)(=O)c1ccc(Cl)s1)N1CC(C)(C)C(C)=N1 [compound 112] | 200 nM | 63.1 nM |  |
| CCC1CN(/C(N)=N/S(=O)(=O)c2cccc(Cl)c2)N=C1C (stereo not drawn) [compound 113] |  |  | melting point: 121 to 123 °C |
| CCN/C(=N\S(=O)(=O)c1c(Cl)nc2sccn12)N1CC(C)(C)C=N1 [compound 114] |  |  | melting point: 139 to 141 °C |
| CC1=NN(/C(N)=N/S(=O)(=O)c2cccc(Cl)c2)CC1(C)C [compound 115] |  |  | melting point: 135 to 137 °C |
| CC1=NN(/C(N)=N/S(=O)(=O)c2c(Cl)nc3sccn23)CC1(C)C [compound 117] |  |  | melting point: 169 to 171 °C |
| CCC1CN(/C(N)=N/S(=O)(=O)c2ccc(Cl)s2)N=C1C (stereo not drawn) [compound 121] |  |  | melting point: 155 to 156 °C |
| CC1(C)C=NN(/C(N)=N/S(=O)(=O)c2c(Cl)nc3sccn23)C1 [compound 127] |  |  | melting point: 198 to 199 °C |
| N/C(=N\S(=O)(=O)c1c(Cl)nc2sccn12)N1CC2(C=N1)CCCC2 [compound 131] |  |  | melting point: 174 to 177 °C |
| CCN/C(=N\S(=O)(=O)c1cccc(Cl)c1)N1CC(c2ccccc2)C=N1 (stereo not drawn) [compound 139] | 251 nM | 316 nM |  |
| CCN/C(=N\S(=O)(=O)c1cccc(Cl)c1)N1CC(c2ccccc2)C(C)=N1 (stereo not drawn) [compound 140] | 200 nM |  |  |
| CCN/C(=N\S(=O)(=O)c1cccc(Cl)c1)N1N=CCC1c1ccco1 (stereo not drawn) [compound 144] | 7.94 nM |  | 5-HT6 pA2 (5-HT6 receptor [2]; [4]): 8.1 |
| CCN/C(=N\S(=O)(=O)c1cccc(Cl)c1)N1N=CCC1c1cccnc1 (stereo not drawn) [compound 145] | 31.6 nM | 12.6 nM |  |
| CCN/C(=N\S(=O)(=O)c1cccc(Cl)c1)N1N=CCC1c1ccoc1 (stereo not drawn) [compound 146] | 20 nM | 39.8 nM |  |
| CCN/C(=N\S(=O)(=O)c1cccc(Cl)c1)N1N=CCC1c1ccccn1 (stereo not drawn) [compound 147] | 316 nM | 794 nM |  |
| CCN/C(=N\S(=O)(=O)c1cccc(Cl)c1)N1N=CCC1c1ccncc1 (stereo not drawn) [compound 148] | 501 nM |  | 5-HT6 pA2 (5-HT6 receptor [2]; [4]): 6.9 |
| CCN/C(=N\S(=O)(=O)c1cccc(Cl)c1)N1N=CCC1c1ccsc1 (stereo not drawn) [compound 149] | 12.6 nM | 31.6 nM |  |
| CCN/C(=N\S(=O)(=O)c1cccc(Cl)c1)N1N=CCC1c1cccs1 (stereo not drawn) [compound 150] | 31.6 nM | 31.6 nM |  |

| Compound | Ki (5-HT6 receptor [1]) | Kb (5-HT6 receptor [2]; [3]) | other results |
| --- | --- | --- | --- |
| CCN/C(=N\S(=O)(=O)c1cccc(Cl)c1)N1N=C(C(C)C)CC1c1ccccc1 (stereo not drawn) [compound 151] | 200 nM | 501 nM |  |
| CCN/C(=N\S(=O)(=O)c1cccc(Cl)c1)N1N=CC(C)C1c1ccccc1 (stereo not drawn) [compound 152] | 158 nM |  |  |
| CCN/C(=N\S(=O)(=O)c1cccc(Cl)c1)N1N=CC(CC)C1c1ccccc1 (stereo not drawn) [compound 153] | 158 nM |  |  |
| CCN/C(=N\S(=O)(=O)c1cccc(Cl)c1)N1N=CC2CN(C)CCC21 (stereo not drawn) [compound 154] | 10 nM | 3.98 nM |  |
| CCN/C(=N\S(=O)(=O)c1cccc(Cl)c1)N1CC2(C=N1)CCN(C)CC2 [compound 157] | 6.31 nM | 7.94 nM |  |
| CN/C(=N\S(=O)(=O)c1cccc(Cl)c1)N1CC2(C=N1)CCOCC2 [compound 160] | 79.4 nM | 200 nM |  |
| N/C(=N\S(=O)(=O)c1cccc(Cl)c1)N1CC2(C=N1)CCOCC2 [compound 161] | 79.4 nM | 100 nM |  |
| CCN/C(=N\S(=O)(=O)c1c(Cl)nc2sccn12)N1CC2(C=N1)CCOCC2 [compound 162] | 63.1 nM | 12.6 nM |  |
| CN/C(=N\S(=O)(=O)c1c(Cl)nc2sccn12)N1CC2(C=N1)CCOCC2 [compound 163] | 251 nM | 10 nM |  |
| N/C(=N\S(=O)(=O)c1c(Cl)nc2sccn12)N1CC2(C=N1)CCOCC2 [compound 164] | 50.1 nM | 39.8 nM |  |
| CCN/C(=N\S(=O)(=O)c1ccc(Cl)s1)N1CC2(C=N1)CCOCC2 [compound 165] | 25.1 nM | 20 nM |  |
| CN/C(=N\S(=O)(=O)c1ccc(Cl)s1)N1CC2(C=N1)CCOCC2 [compound 166] | 100 nM | 79.4 nM |  |
| N/C(=N\S(=O)(=O)c1ccc(Cl)s1)N1CC2(C=N1)CCOCC2 [compound 167] | 63.1 nM | 31.6 nM |  |
| CCN/C(=N\S(=O)(=O)c1cccc(Cl)c1)N1CC(CCC(F)(F)F)(CCC(F)(F)F)C=N1 [compound 168] | 316 nM |  |  |
| CCN/C(=N\S(=O)(=O)N(C)c1ccccc1)N1CC(CC)C=N1 (stereo not drawn) [compound 172] | 316 nM |  |  |
| CCN/C(=N\S(=O)(=O)c1ccc(N(C)C)cc1)N1CC(CC)C=N1 (stereo not drawn) [compound 174] | 100 nM |  |  |
| CCN/C(=N\S(=O)(=O)c1ccccc1Cl)N1CCCC1 [reference compound] |  |  | Kb (5-HT6 receptor [2]): > 10000 nM |
